Data reported in patent US20020173489A1, “COMPOSITIONS CONTAINING A MIXTURE OF PHOSPHOROUS COMPOUNDS AND ALKYLGLYCEROLS” (priority 1987, published 2002).
Entries after “also recorded” stand apart in the source; their conditions may differ.

Tests used:
wart-shaped excrescence = test: topical treatment of a wart-shaped excrescence (Example 9); assay type: in vivo, human
Method: A person presented a wart-shaped excrescence of increasing size (diameter: about 5 mm; height: about 3 mm), formed at the site of a stab wound on their right middle finger after an initial inflammatory reaction. The excrescence grew over a period of about 1.5 years. There was heavy vascularization at the site, as well as superficial furrowing. The position of the wart (side facing the ring finger), made it quite susceptible to injury.
The patient was treated by topically administering a composition containing 40 mg/ml hexadecylphosphocholine, 317 mg/ml of 3-propoxypropyleneglycol, 158 mg/ml of hexyloxypropyleneglycol, and 158 mg/ml of nonyloxypropyleneglycol, in solution, and then a solution containing 60 mg/ml of the hexadecy/phosphocholine, and the other components above, in the same amounts. The solutions were administered topically, 2-3 times per day.
The excrescence rapidly developed a horny surface, and regressed. Cornified residues were removable without bleeding. The treatment was terminated […] the surrounding skin level was reached. This took about 6 weeks. When the patient was examined about 8 weeks later, the condition was stable. […] It is believed that this was the result of regeneration of the epidermis in the excrescence region.

[1] = system: chemically-induced mammary carcinomas; test: chemically-induced mammary carcinomas in rats, oral potable solution; assay type: in vivo, rat; settings: daily doses of 20, 40 and 60 mg/kg body weight
Source text: For oral administration, the compounds of formula I are advantageously used in the form of a potable solution. Suitable potable carriers for this purpose include milks, cocoa, fruit juices and drinking water. The preparation of such potable solutions can involve, for example, diluting a concentrated alcoholic solution of a compound of the formula I or I′ with water or with another one of the previously mentioned carriers. […] The tumor model used for these experiments was a so-called hard model. This means that the findings obtained with this model can also be applied to humans.

SMILES | condition at follow-up (wart-shaped excrescence; examined about 8 weeks after end of treatment) | effect on the excrescence (wart-shaped excrescence; person, topical 2-3 times per day, 40 then 60 mg/ml in propoxy-/hexyloxy-/nonyloxypropyleneglycol solution) | damage to surrounding healthy skin regions (wart-shaped excrescence; topical) | time of treatment until termination (before surrounding skin level was reached) (wart-shaped excrescence; topical 2-3 times per day) | skin reactions (wart-shaped excrescence; topical, reddening disappeared after about 2 weeks) | remission of chemically-induced mammary carcinomas [1]
CCCCCCCCCCCCCCCCOP(=O)([O-])OCC[N+](C)(C)C [hexadecylphosphocholine] | stable | regressed | no apparent damage | about 6 weeks | slight reddening of the skin; also recorded: slight peeling of healthy skin | 
CCCCCCCC/C=C\CCCCCCCCOP(=O)([O-])OCC[N+](C)(C)C [oleylphosphocholine] |  |  |  |  |  | complete remission
